What was measured:
Kimba (trVEGF029) mice = assay: Kimba (trVEGF029) mice, fluorescein fundus angiography and optical coherence tomography; format: in vivo; conditions: 0.8% solution, ocular instillation three times a day for 2 weeks
Description: The effectiveness of the compound 1 in Kimba (trVEGF029) mice known as mice transgenic for VEGF gene, which develop retinal neovascularization, was examined in the following manner.
Compound 1 solution prepared in the same manner as in Example 1: 0.8% solution (instillation volume: 20 μL)
Test animals: Kimba mice (available from Lions Eye Institute Ltd., 6 mice per group)
One-month-old Kimba mice born on the same day were given saline (control) or the 0.8% compound 1 solution by ocular instillation three times a day for 2 weeks, and were then subjected to fluorescein fundus angiography and optical coherence tomography under anesthesia for evaluation. More specifically, in fluorescein fundus angiography, each of the mice was first given tropicamide by ocular instillation to cause mydriasis and then anesthetized by intraperitoneal administration of 100 mg/kg of Ketalar and 10 mg/kg of Selactar, given 6 μL/g of a contrast agent for fluorescein fundus angiography by intraperitoneal injection, and subjected to fluorescein fundus angiography using Heidelberg Retina Angiograph (HRA, Heidelberg, Germany). […]

[1] = test system: b-END3 (bEND.3) mouse brain microvascular endothelial cells; assay: Tight junction test: F-Actin immunostaining in b-END3 cells; format: cell-based; conditions: pretreatment 3 μM or 30 μM, 3 hours; VEGF 25 ng/mL or IL-6 10 ng/mL, 24 hours
Description: According to a conventional method, b-END3 (bEND.3: ATCC CRL-2299™) cells, which are mouse brain microvascular endothelial cells, were subcultured in 3.5 cm dishes (9×10^5 cells/dish), and a test was started from day 6 after subculture. […]
The cells after the test were subjected to immunostaining according to the following procedure to evaluate the expression of Claudin-5 or F-Actin. […] Then, a cover glass-sized cell sample was prepared by trimming with a cotton swab, enclosed with a Dako pen, blocked with 10% normal goat serum (10% normal goat serum ready-to-use (Invitrogen)) (30 min, ordinary temperature), and allowed to stand at 4° C. overnight. […]

C[C@H]1CNCCCN1S(=O)(=O)c1cccc2cncc(F)c12 [compound 1, (S)-(−)-1-(4-fluoro-5-isoquinolinesulfonyl)-2-methyl-1,4-homopiperazine]
edema (fluorescein fundus angiography / optical coherence tomography images) (Kimba (trVEGF029) mice): suppression of edema is observed | average maximum retinal thickness (mean±standard error) (Kimba (trVEGF029) mice; optical coherence tomography, saline control 361.8±36.1): 256.7±35.7 μm | F-Actin polymerization caused by VEGF stimulation or IL-6 stimulation [1]: suppression of F-Actin polymerization

Source: US20190365776A1, “THERAPEUTIC AGENT FOR OCULAR FUNDUS DISEASE” (KYUSHU UNIVERSITY, NATIONAL UNIVERSITY CORPORATION, priority 2013, published 2019)
